Like-named read-outs stand apart in the source and are kept apart here. Marks after values point to notes of the source that are not given here.
Columns and labels:
[1] = set-up: method as in PMID 3824395; settings: 200mg/kg dose; cited from earlier work
[2] = Plasma Cmax in humans after therapeutical TCBZ dose (literature); format: in vivo; settings: 10 mg/kg
[3] = system: rat embryos explanted at GD 9.5; test: Postimplantation whole embryo culture (postWEC); set-up: species or system Sprague Dawley rats; key to Yolk sac circulation (median): 1 = few/abnormal vessels, 2 = delayed, 3 = complete vascularization; key to Morphological score: sum of structure scores; higher = more advanced differentiation; settings: for Crown-rump length / Dysmorphogenic embryos / Morphological score / Somites number / Yolk sac circulation (median): 48 h; for postWEC LOAEC / postWEC NOAEC: GD 9.5-11.5, 48 h; for Teratogenic/dysmorphogenic potency, times lower than ABZ: postimplantation rodent embryos
Protocol: Nulliparous female rats, which were checked to be in the oestrus phase of the oestrous cycle, were housed with adult males (1:1) for 4 h, considering 2 h of light and 2 h of darkness. Mating was confirmed by the presence of sperm in vaginal smear, and the following 24 h were considered as gestational day 0 (GD 0).
Rat embryos were explanted and evaluated as described before with some variations. Briefly, embryos were explanted at GD 9.5 under sterile conditions. Two embryos were incorporated in flasks filled with 3.5 mL of culture medium which contained 20% of rat serum and 80% of serum mixture (Biochrom AG; Berlin, Germany). TCBZ, TCBZSO, ABZ and ABZSO were dissolved in dimethyl sulfoxide (DMSO; Sigma Aldrich Spain) and added to the culture medium to a final DMSO concentration of 0.1%. Culture flasks were oxygenated at the beginning of the culture with a gas mixture containing 12% O2 and after 38 h with a gas mixture containing 50% O2. Embryos were cultured at a temperature of 38°C, under rotation at a speed of 25 rpm (Noria R, Ovan Spain) for 48 h. After this period, embryos presenting yolk sac circulation and heartbeat were considered alive and were selected for further evaluation. The yolk sac circulation was evaluated according to the level of formation of blood vessels, giving a score of 1 in the cases in which few vessels were observed or the vascularization was abnormal, a score of 2 when a delay in vascularization was observed and 3 for complete vascularization, as previously described in [35]. Growth evaluation was assessed by crown-rump length and differentiation was evaluated by counting the number of somites and the morphological score. This score is the sum of the scores given to several embryonic structures depending on their differentiation stage, corresponding higher values with higher stages of differentiation. Furthermore, the percentage of dysmorphogenesis was calculated according to [36].
For the postWEC experiments, the selected concentrations were 140 μM, 278 μM and 556 μM for TCBZ and 267 μM, 666 μM and 932 μM for TCBZSO. The tested concentrations for ABZ analysis were 0.4 μM, 1.1 μM and 1.9 μM and for ABZSO were 3.4 μM, 9 μM, 12 μM, 14 μM and 16 μM.

[4] = set-up: method as in PMID 20128898; settings: sheep, TCBZ 10 mg/kg; calculated from ref 41; read-out: TCBZSO Cmax; cited from earlier work
[5] = set-up: method as in PMID 21337234; settings: cows, 12 mg/kg dose; calculated from ref 39; read-out: TCBZSO Cmax; cited from earlier work
[6] = set-up: method as in PMID 7905812; settings: rabbits, single 10 mg/kg TCBZ dose; transformed to μM from ref 40; read-out: TCBZSO maximum plasma concentration (Cmax); cited from earlier work

Compound: CSc1nc2cc(Cl)c(Oc3cccc(Cl)c3Cl)cc2[nH]1 [TCBZ, 5-chloro-6-(2,3-dichlorophenoxy)-2-(methylthio)benzimidazole]
- Teratogenicity in vivo [1]: not teratogenic at a 200mg/kg dose [23]
- Plasma concentration, times lower than triclabendazole sulfoxide [2]: approximately 30 times
- Crown-rump length ([3]; 140 μM): 3.5 ± 0.2 mm
- Dysmorphogenic embryos ([3]; 140 μM): 0%
- Morphological score ([3]; 140 μM): 39.0 ± 1.5
- Somites number ([3]; 140 μM): 26.9 ± 1.1
- Yolk sac circulation (median) ([3]; 140 μM): 3.0
- Frequency of dysmorphogenesis: Branchial bars ([3]; 278 µM): 25%
- Frequency of dysmorphogenesis: Flexion ([3]; 278 µM): 12.5%
- Frequency of dysmorphogenesis: Head ([3]; 278 µM): 12.5%
- Frequency of dysmorphogenesis: Otic vesicles ([3]; 278 µM): 12.5%
- Frequency of dysmorphogenesis: Yolk sac ([3]; 278 µM): 62.5%
- Crown-rump length ([3]; 278 μM): 3.2 ± 0.5 mm
- Dysmorphogenic embryos ([3]; 278 μM): 62.5 ^* %
- Morphological score ([3]; 278 μM): 35.1 ± 5.9
- Somites number ([3]; 278 μM): 25.7 ± 2.0
- Yolk sac circulation (median) ([3]; 278 μM): 1.0 ^*
- Frequency of dysmorphogenesis: Branchial bars ([3]; 556 µM): 100%
- Frequency of dysmorphogenesis: Flexion ([3]; 556 µM): 50%
- Frequency of dysmorphogenesis: Head ([3]; 556 µM): 75%
- Frequency of dysmorphogenesis: Heart ([3]; 556 µM): 12.5%
- Frequency of dysmorphogenesis: Optic vesicles ([3]; 556 µM): 37.5%
- Frequency of dysmorphogenesis: Yolk sac ([3]; 556 µM): 100%
- Crown-rump length ([3]; 556 μM): 2.6 ± 0.6 mm
- Dysmorphogenic embryos ([3]; 556 μM): 100%
- Morphological score ([3]; 556 μM): 21.0 ± 3.0
- Yolk sac circulation (median) ([3]; 556 μM): 1.0 ^*
- postWEC LOAEC [3]: 278 µM
- postWEC NOAEC [3]: 140 µM
- Teratogenic/dysmorphogenic potency, times lower than ABZ [3]: approximately 250 times
- Teratogenic/dysmorphogenic potency, times lower than ABZ ([3]; listed as Triclabendazole): 250 times

Compound: C[S+]([O-])c1nc2cc(Oc3cccc(Cl)c3Cl)c(Cl)cc2[nH]1 (centres unmarked) [TCBZSO, Triclabendazole sulfoxide]
- Cmax [4]: 37.3 µM
- Cmax [5]: 71.3 µM
- Cmax [6]: 33 µM
- Crown-rump length ([3]; 267 μM): 3.4 ± 0.4 mm
- Dysmorphogenic embryos ([3]; 267 μM): 0%
- Morphological score ([3]; 267 μM): 37.9 ± 2.8
- Somites number ([3]; 267 μM): 26.6 ± 1.6
- Yolk sac circulation (median) ([3]; 267 μM): 3.0
- Frequency of dysmorphogenesis: Branchial bars ([3]; 666 µM): 11.1%
- Frequency of dysmorphogenesis: Head ([3]; 666 µM): 33.3%
- Frequency of dysmorphogenesis: Optic vesicles ([3]; 666 µM): 33.3%
- Frequency of dysmorphogenesis: Yolk sac ([3]; 666 µM): 33.3%
- Crown-rump length ([3]; 666 μM): 3.1 ± 0.7 mm
- Dysmorphogenic embryos ([3]; 666 μM): 55.6 ^* %
- Morphological score ([3]; 666 μM): 30.8 ± 7.1
- Somites number ([3]; 666 μM): 25.1 ± 2.1
- Yolk sac circulation (median) ([3]; 666 μM): 3.0 ^*
- Frequency of dysmorphogenesis: Branchial bars ([3]; 932 µM): 100%
- Frequency of dysmorphogenesis: Flexion ([3]; 932 µM): 87.5%
- Frequency of dysmorphogenesis: Head ([3]; 932 µM): 75%
- Frequency of dysmorphogenesis: Limbs ([3]; 932 µM): 12.5%
- Frequency of dysmorphogenesis: Optic vesicles ([3]; 932 µM): 62.5%
- Frequency of dysmorphogenesis: Otic vesicles ([3]; 932 µM): 25%
- Frequency of dysmorphogenesis: Yolk sac ([3]; 932 µM): 100%
- Crown-rump length ([3]; 932 μM): 2.3 ± 0.5 mm
- Dysmorphogenic embryos ([3]; 932 μM): 100 ^* %
- Morphological score ([3]; 932 μM): 20.3 ± 2.7
- Yolk sac circulation (median) ([3]; 932 μM): 1.0 ^*
- postWEC LOAEC [3]: 666 µM
- postWEC NOAEC [3]: 267 µM
- Teratogenic potency, times less potent than parent compound TCBZ ([3]; postWEC): 2.5 times
